Assay results from PubChem BioAssay (NCI).
“And” between values parts separate entries of the source, which are not always exact repeats. Equal values may be shown once.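 A five-concentration, 48-hour dose response in 96-well plates underlies each endpoint, interpolated linearly between surrounding concentrations. GI50: concentration for 50% inhibition of growth. TGI: concentration producing complete growth inhibition.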

Legend:
Experiment in all cases: DTP human tumour cell line panel, 48 h
LOX IMVI melanoma = system: LOX IMVI melanoma
SF-268 CNS = system: SF-268 CNS
HCT-15 colon = system: HCT-15 colon
EKVX NSCLC = system: EKVX NSCLC
T-47D breast = system: T-47D breast
M14 melanoma = system: M14 melanoma
OVCAR-8 ovarian = system: OVCAR-8 ovarian
SF-539 CNS = system: SF-539 CNS
UO-31 renal = system: UO-31 renal
OVCAR-3 ovarian = system: OVCAR-3 ovarian

Row | SMILES | TGI (LOX IMVI melanoma) [µM] | TGI (SF-268 CNS) [µM] | TGI (HCT-15 colon) [µM] | TGI (EKVX NSCLC) [µM] | TGI (T-47D breast) | TGI (M14 melanoma) [µM] | TGI (OVCAR-8 ovarian) [µM] | TGI (SF-539 CNS) [µM] | TGI (UO-31 renal) [µM] | TGI (OVCAR-3 ovarian) [µM] | GI50 (LOX IMVI melanoma) [µM] | GI50 (EKVX NSCLC) [µM] | GI50 (M14 melanoma) [µM] | GI50 (UO-31 renal) [µM] | GI50 (SF-268 CNS) [µM] | GI50 (HCT-15 colon) [µM] | GI50 (T-47D breast) | GI50 (OVCAR-8 ovarian) [µM] | GI50 (SF-539 CNS) | GI50 (OVCAR-3 ovarian) [µM]
1 | CCOC(=O)C1(C(F)(F)F)N=C(CC)OC(N2CCOCC2)=N1 (stereo unspecified) | > 100 | > 100 | > 100 | > 100 | > 100 µM | > 100 | > 100 | > 100 | > 100 | > 100 |  |  |  |  |  |  |  |  |  | 
2 | NC1=NCC(CN2CCCC2)O1 (stereo unspecified) | > 100 | > 100 | > 100 | > 100 | > 100 µM | > 100 | > 100 | > 100 | > 100 | > 100 |  |  |  |  |  |  |  |  |  | 
3 | O=C1CC(n2cccc2)c2c(Br)sc(Br)c21 (stereo unspecified) | 21.7 | 31.2 | 30.7 | 33.3 | 46.3 µM | 30.2 | 37.8 | 35 | 5.66 | 33.2 |  |  |  |  |  |  |  |  |  | 
4 | C=CC1CN2CCC1CC2C(O)c1ccnc2ccccc12 (stereo unspecified) | > 100 | > 100 | > 100 | > 100 | > 100 µM | > 100 | > 100 | > 100 | > 100 | > 100 | > 100 | > 100 | > 100 | 36.8 |  |  |  |  |  | 
5 | N#Cc1nc(C#N)n(C(=O)c2ccccc2)c1NC(=O)c1ccccc1 | > 100 | > 100 | > 100 | > 100 | > 100 µM | > 100 | > 100 | > 100 | > 100 | > 100 |  |  |  |  |  |  |  |  |  | 
6 | NC(=O)Cc1nc2c(=O)[nH]cnc2n1C1OC(CO)C(O)C1O (stereo unspecified) | > 100 | > 100 | > 100 | > 100 | > 100 µM | > 100 | > 100 | > 100 | > 100 | > 100 |  |  |  |  |  |  |  |  |  | 
7 | CC(=O)/C(=C\c1ccc(Cl)c(Cl)c1)C(=O)C(C)CN(C)C (stereo unspecified) | 6.14 | 23.4 | 10.1 | 27.8 | 12.3 µM | 24.2 | 6.45 | 13.4 | 14.5 | 16.1 |  |  |  |  |  |  |  |  |  | 
8 | CSc1ccc(/C=C2\N=C(c3ccccc3)N(/N=C/c3cc4cc(C)ccc4nc3Cl)C2=O)cc1 | 44.6 | 47.6 | 96.5 | > 100 | 91 µM | 38.4 | 42.4 | 43.3 | 33.4 | 48.7 |  |  |  |  |  |  |  |  |  | 
9 | CCC(CC(C)C)Nc1ccc(NC(CC)CC(C)C)cc1 (stereo unspecified) | 35.1 | 30.6 | 27.9 | 37.6 | 26.7 µM | 34.7 | 34.2 | 33 | 29.3 | 26 | 14.9 | 16.7 | 16.8 | 14.8 | 16 | 14.8 | 12.7 µM | 18.2 | 17.1 µM | 13.3
10 | S=C(NCc1ccccc1)N/N=C/c1ccccn1 | 21.5 | > 91.4 | > 40.5 | > 100 | > 100 µM | 9.32 | > 76.2 | > 100 | 21 | > 100 |  |  |  |  |  |  |  |  |  | 
11 | C=C1C(=O)O[C@H]2[C@H]3O[C@@H](C[C@@H]12)[C@](C)(O)CC[C@@H]1O[C@@]1(C)CCC[C@H]3C | 35.7 | 34.2 | 37.9 | 54.6 | 82.4 µM | 29.3 | 47.5 | 53.7 | 69.3 | 46.6 |  |  |  |  |  |  |  |  |  | 
12 | CO[C@H]1C[C@H](O[C@H]2CC[C@]3(C=O)[C@H]4CC[C@]5(C)[C@@H](C6=CC(=O)OC6)CC[C@]5(O)[C@@H]4CC[C@]3(O)C2)O[C@H](C)[C@H]1O | 8.31 | 0.577 | 0.732 | 0.79 | 5.31 µM | 4.19 | 1.03 | 0.218 | 2.53 | 0.556 |  |  |  |  |  |  |  |  |  | 
13 | NS(=O)(=O)c1ccc(NNc2c3ccccc3nc3c(C(=O)Nc4ccc(S(=O)(=O)Nc5ncccn5)cc4)cccc23)cc1 | > 25 | > 25 | > 25 | > 25 | > 25 µM | > 25 | > 25 | > 25 | > 25 | > 25 |  |  |  |  |  |  |  |  |  | 
14 | O=C1c2ccccc2-c2[nH]c3cn[nH]c(=O)c3c21 | > 100 | > 100 | > 100 | > 100 | > 100 µM | > 100 | > 100 | > 100 | > 100 | > 100 |  |  |  |  |  |  |  |  |  | 
15 | CCOP(=O)(OCC)C(C)(CC)NC(=O)C(C(F)(F)F)C(F)(F)F (stereo unspecified) | > 100 | > 100 | > 100 | > 100 | > 100 µM and 99.7 µM | > 100 | > 100 | > 100 | > 100 | > 100 |  |  |  |  |  |  | > 51.5 µM and 21.1 µM |  | 48.1 µM and > 100 µM | 
16 | CCOP(=O)(OCC)/C(C#N)=C/c1cccn1Cc1ccccc1 | 53 | > 100 | > 100 | > 100 | 74 µM | > 100 | > 100 | 36.1 | 99.7 | > 100 |  |  |  |  |  |  |  |  |  | 
17 | O=C(/C=C/c1cccs1)c1ccccc1Cl | 32.9 | 26.4 | 33.4 | 30.8 | 22.8 µM | > 55.9 | > 100 | > 69.1 | 17.2 | 28.2 |  |  |  |  |  |  |  |  |  | 
18 | O=C(NNCc1ccc(Cl)cc1)Nc1cccc2ccccc12 | > 100 | > 100 | > 100 | > 100 | > 100 µM | > 100 | > 100 | > 100 | > 100 | > 100 |  |  |  |  |  |  |  |  |  | 
19 | C/C(=N\Nc1nc2ccccc2[nH]1)c1cc2ccccc2cn1 | 1.48 | 1.02 | 2.51 | 1.35 | 1.12 µM | 0.357 | 1.24 | 0.764 | 1.38 | 0.911 |  |  |  |  |  |  |  |  |  | 
20 | O=C(c1ccco1)N(C(=S)OC12CC3CC(CC(C3)C1)C2)c1ccccc1 | 86.2 | > 100 | > 100 | 50.1 | > 100 µM | 43.7 | > 100 | 41.7 | 98.7 | 77.4 |  |  |  |  |  |  |  |  |  | 
21 | Cc1ccc(/C(O)=C/c2nc3ccc([N+](=O)[O-])cc3nc2/C=C(\O)c2ccc(C)cc2)cc1 | > 100 | > 100 | > 100 | > 100 | > 100 µM | > 100 | > 100 | > 100 | > 100 | > 100 |  |  |  |  |  |  |  |  |  | 
